How the values were obtained:
[1] = target: FLT3 D835Y (Homo sapiens, UniProt P36888, D835Y); test: SelectScreen kinase profiling, ZLYTE; type: biochemical
[2] = target: DAPK1 (Homo sapiens, UniProt P53355); test: SelectScreen kinase profiling, Adapta; type: biochemical; conditions: DAPK1, 10 µM
[3] = target: ADCK3 (Homo sapiens, UniProt Q8NI60); test: SelectScreen kinase profiling, LanthaScreen binding; conditions: ADCK3, 10 µM
From the text: Kinase Technology % Inhibition Avg Kinase Technology % Inhibition Avg
STK23 (MSSK1) ZLYTE 59 TGFBR1 (ALK5) LanthaScreen 85
STK24 (MST3) ZLYTE 85 TGFBR2 LanthaScreen 77
STK25 (YSK1) ZLYTE 45 TLK1 LanthaScreen 4
STK3 (MST2) ZLYTE 77 TLK2 LanthaScreen 33
STK32B (YANK2) LanthaScreen 61 TNIK LanthaScreen 15
STK32C (YANK3) LanthaScreen 62 TNK1 ZLYTE 94
STK33 LanthaScreen 81 TNK2 (ACK) LanthaScreen 71
STK38 (NDR) LanthaScreen 85 TTK LanthaScreen 54
STK38L (NDR2) LanthaScreen 59 TXK ZLYTE 94
STK39 (STLK3) LanthaScreen 38 TYK2 ZLYTE 99
STK4 (MST1) ZLYTE 93 TYRO3 (RSE) ZLYTE 92
SYK ZLYTE 98 ULK1 LanthaScreen 80
TAOK1 LanthaScreen 82 ULK2 LanthaScreen 56
TAOK2 (TAO1) ZLYTE 87 ULK3 LanthaScreen 5
TAOK3 (JIK) LanthaScreen 25 VRK2 LanthaScreen 32
TBK1 ZLYTE 99 WEE1 LanthaScreen 75
TEC LanthaScreen -9 WNK1 LanthaScreen 2
TEK (Tie2) ZLYTE 99 WNK2 LanthaScreen 1
TEK (TIE2) R849W LanthaScreen -5 WNK3 LanthaScreen 7
TEK (TIE2) Y897S ZLYTE 80 ZAK LanthaScreen 77
TESK1 LanthaScreen 37 ZAP70 ZLYTE 24
cleavage (Thermo Fisher Scientific, USA)

[4] = target: MERTK (cMER) A708S (Homo sapiens, UniProt Q12866, A708S); test: as above
[5] = target: GRK7 (Homo sapiens, UniProt Q8WTQ7); test: SelectScreen kinase profiling, ZLYTE; type: biochemical; conditions: GRK7, 10 µM
[6] = target: PIK3C3 (hVPS34) (Homo sapiens, UniProt Q8NEB9); test: SelectScreen kinase profiling, Adapta; type: biochemical
[7] = tested on: RT and MB cells; test: Beta-galactosidase senescence assay; type: cell-based; conditions: all cell lines
Protocol: Senescence was evaluated using the Beta-galactosidase assay (Senescence Cells Histochemical Staining Kit CS0030 (Sigma, St Louis, MO, USA) and clonogenic recovery assay as previously described.

[8] = tested on: RT and MB cells; test: Clonogenic colony formation assay; type: cell-based; conditions: 1µM
Protocol: All cell lines were seeded at 200 cells per well in six-well plates and incubated overnight. After 24 h, the treatment medium was added and changed once a week. Cells were treated with 0.01, 0.05, 0.1, 0.2, 0.5, 1, 5, and 10 µM of PLK4i and 0.1% DMSO as control. After 14 days, the cells were washed twice with 1x PBS, fixed with formalin, and stained with Cresyl violet (ACROS Organics, Pittsburgh, PA, USA). Colonies were counted using the ImageJ software (www.imagej.nih.gov, accessed on April 21, 2017).

[9] = target: FYN A (Homo sapiens, UniProt P06241); test: SelectScreen kinase profiling, LanthaScreen binding
Chain of FYN A (P06241 whole entry): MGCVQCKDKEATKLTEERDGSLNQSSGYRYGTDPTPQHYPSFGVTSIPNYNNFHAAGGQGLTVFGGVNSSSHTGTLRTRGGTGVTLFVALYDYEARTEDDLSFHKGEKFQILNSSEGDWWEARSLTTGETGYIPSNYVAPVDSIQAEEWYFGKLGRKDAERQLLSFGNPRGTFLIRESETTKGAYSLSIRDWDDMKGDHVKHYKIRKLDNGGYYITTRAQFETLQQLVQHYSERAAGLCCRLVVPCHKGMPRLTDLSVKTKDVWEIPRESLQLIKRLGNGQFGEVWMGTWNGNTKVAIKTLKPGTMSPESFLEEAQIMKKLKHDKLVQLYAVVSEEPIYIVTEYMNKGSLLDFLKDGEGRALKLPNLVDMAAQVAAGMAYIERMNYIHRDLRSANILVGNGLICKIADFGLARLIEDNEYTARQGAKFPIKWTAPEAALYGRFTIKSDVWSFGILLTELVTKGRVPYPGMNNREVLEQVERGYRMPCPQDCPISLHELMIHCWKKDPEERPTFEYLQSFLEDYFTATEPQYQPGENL

[10] = target: EPHA3 (Homo sapiens, UniProt P29320); test: as above; conditions: EPHA3, 10 µM
Chain of EPHA3 (P29320 21-983): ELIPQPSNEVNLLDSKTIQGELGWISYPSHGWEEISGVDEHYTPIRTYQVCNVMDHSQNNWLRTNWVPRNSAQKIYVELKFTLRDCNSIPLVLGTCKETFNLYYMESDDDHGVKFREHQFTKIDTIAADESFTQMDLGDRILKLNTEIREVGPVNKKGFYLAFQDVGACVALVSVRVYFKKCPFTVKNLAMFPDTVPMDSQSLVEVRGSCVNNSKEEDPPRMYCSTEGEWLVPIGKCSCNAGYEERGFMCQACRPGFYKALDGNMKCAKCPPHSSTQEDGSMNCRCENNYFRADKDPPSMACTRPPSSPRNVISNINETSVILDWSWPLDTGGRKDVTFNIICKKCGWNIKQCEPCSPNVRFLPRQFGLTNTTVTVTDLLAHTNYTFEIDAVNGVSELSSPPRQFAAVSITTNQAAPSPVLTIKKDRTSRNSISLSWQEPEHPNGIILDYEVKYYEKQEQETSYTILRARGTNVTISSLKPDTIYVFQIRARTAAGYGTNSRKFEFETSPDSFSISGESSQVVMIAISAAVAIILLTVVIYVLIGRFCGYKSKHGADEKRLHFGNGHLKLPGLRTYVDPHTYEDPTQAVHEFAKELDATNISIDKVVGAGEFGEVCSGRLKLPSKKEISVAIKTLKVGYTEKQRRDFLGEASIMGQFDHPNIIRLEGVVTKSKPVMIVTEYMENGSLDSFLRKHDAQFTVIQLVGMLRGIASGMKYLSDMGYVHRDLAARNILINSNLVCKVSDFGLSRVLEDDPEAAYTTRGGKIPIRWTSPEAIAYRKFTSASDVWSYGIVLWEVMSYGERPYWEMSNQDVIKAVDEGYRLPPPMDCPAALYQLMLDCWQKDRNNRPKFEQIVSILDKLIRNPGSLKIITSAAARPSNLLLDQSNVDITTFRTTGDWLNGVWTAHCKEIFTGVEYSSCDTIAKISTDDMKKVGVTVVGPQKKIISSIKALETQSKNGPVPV

[11] = target: CDK1/cyclin B (Homo sapiens, UniProt P06493); test: SelectScreen kinase profiling, ZLYTE; type: biochemical
[12] = target: DMPK (Homo sapiens, UniProt Q09013); test: SelectScreen kinase profiling, LanthaScreen binding
[13] = target: SIK1 (Homo sapiens, UniProt P57059); test: as above; conditions: SIK1, 10 µM
Chain of SIK1 (P57059 whole entry): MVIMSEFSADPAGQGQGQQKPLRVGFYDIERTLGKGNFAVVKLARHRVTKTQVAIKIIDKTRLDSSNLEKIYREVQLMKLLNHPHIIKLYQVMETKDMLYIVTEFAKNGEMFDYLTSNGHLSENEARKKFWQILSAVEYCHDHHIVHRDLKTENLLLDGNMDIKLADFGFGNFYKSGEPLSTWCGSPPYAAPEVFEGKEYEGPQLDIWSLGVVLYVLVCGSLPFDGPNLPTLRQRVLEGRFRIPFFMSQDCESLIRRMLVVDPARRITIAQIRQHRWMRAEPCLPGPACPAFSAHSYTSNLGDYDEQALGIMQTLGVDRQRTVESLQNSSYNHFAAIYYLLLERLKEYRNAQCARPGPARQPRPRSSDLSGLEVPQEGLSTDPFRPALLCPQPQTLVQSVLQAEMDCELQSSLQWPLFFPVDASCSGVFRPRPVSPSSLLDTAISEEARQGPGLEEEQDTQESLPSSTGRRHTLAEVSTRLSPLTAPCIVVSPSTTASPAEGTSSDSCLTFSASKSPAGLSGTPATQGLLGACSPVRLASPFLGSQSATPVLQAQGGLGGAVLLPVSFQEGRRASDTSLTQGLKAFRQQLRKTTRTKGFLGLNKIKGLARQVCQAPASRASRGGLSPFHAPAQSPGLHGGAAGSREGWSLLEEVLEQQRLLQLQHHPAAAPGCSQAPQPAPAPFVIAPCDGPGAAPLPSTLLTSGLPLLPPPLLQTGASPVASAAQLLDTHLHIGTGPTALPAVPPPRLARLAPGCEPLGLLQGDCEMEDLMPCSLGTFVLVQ

[14] = target: BMPR1A (ALK3) (Homo sapiens, UniProt P36894); test: as above
[15] = target: MYO3B (MYO3 beta) (Homo sapiens, UniProt Q8WXR4); test: as above
[16] = target: ALK F1174L (Homo sapiens, UniProt Q9UM73, F1174L); test: as above
[17] = target: PEAK1 (Homo sapiens, UniProt Q9H792); test: SelectScreen kinase profiling, ZLYTE; type: biochemical; conditions: PEAK1, 10 µM
[18] = target: T1, JAK2 JH1 JH2 V617F (Homo sapiens, UniProt O60674, V617F); test: SelectScreen kinase profiling, ZLYTE; type: biochemical
T1 construct: JAK2 JH1 JH2 V617F
T1 sequence (O60674 532-1132 V617F limits assumed): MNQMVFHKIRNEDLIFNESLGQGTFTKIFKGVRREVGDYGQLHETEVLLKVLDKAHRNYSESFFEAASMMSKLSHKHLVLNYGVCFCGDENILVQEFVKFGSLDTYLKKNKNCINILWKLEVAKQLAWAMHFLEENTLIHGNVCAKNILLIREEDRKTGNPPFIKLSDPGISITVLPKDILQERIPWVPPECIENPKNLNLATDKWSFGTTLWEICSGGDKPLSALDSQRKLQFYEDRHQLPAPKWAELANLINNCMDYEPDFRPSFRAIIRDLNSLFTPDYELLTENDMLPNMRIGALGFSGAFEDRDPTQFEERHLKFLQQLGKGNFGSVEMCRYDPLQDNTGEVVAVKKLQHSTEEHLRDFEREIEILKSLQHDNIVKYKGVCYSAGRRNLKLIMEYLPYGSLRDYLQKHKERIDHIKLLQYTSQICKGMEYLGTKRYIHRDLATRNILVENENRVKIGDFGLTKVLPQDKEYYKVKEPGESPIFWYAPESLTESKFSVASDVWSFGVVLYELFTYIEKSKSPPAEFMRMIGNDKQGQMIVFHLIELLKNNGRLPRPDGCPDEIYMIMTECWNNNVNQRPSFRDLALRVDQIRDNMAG

[19] = target: MYLK4 (Homo sapiens, UniProt Q86YV6); test: SelectScreen kinase profiling, LanthaScreen binding; conditions: MYLK4, 10 µM
[20] = target: FGFR1 V561M (Homo sapiens, UniProt P11362, V561M); test: as above
[21] = target: PI4K2A (PI4K2 alpha) (Homo sapiens, UniProt Q9BTU6); test: SelectScreen kinase profiling, Adapta; type: biochemical
Chain of PI4K2A (PI4K2 alpha) (Q9BTU6 whole entry): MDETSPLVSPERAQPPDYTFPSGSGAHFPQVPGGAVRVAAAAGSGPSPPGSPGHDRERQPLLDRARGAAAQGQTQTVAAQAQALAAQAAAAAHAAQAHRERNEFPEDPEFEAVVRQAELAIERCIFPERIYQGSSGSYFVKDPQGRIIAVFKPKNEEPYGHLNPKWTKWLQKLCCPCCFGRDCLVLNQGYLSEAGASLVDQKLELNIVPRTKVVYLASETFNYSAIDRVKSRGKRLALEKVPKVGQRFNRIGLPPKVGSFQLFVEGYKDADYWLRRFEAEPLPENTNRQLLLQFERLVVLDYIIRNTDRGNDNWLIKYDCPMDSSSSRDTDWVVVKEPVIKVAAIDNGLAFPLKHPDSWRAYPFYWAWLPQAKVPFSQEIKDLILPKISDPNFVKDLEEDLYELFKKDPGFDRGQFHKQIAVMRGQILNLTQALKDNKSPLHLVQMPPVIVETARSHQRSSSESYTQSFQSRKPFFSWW

[22] = target: NEK4 (Homo sapiens, UniProt P51957); test: SelectScreen kinase profiling, ZLYTE; type: biochemical; conditions: NEK4, 10 µM
[23] = target: AXL (Homo sapiens, UniProt P30530); test: SelectScreen kinase profiling, ZLYTE; type: biochemical
[24] = tested on: RT and MB cells; test: Cell cycle analysis (PI flow cytometry); type: cell-based; conditions: 2µM
Protocol: Cell cycle analysis was performed by flow cytometry of cells stained with Propidium Iodide (PI) (Thermo Fisher Scientific, Carlsbad, CA, USA) according to manufacturer’s instructions. Cells treated with the top PLK4i candidates and 0.1% DMSO (control) were fixed in 80% ethanol overnight, stained with PI, and then subjected to flow cytometric analysis using a BD Fortessa instrument (BD Biosciences, San Jose, CA, USA). Data was analyzed using Modfit LT from Verity Software House (Topsham, ME, USA). All experiments were performed in triplicate.

[25] = target: AMPK (A2/B2/G2) (Homo sapiens, UniProt P54646); test: SelectScreen kinase profiling, LanthaScreen binding
Chain of AMPK (A2/B2/G2) (P54646 whole entry): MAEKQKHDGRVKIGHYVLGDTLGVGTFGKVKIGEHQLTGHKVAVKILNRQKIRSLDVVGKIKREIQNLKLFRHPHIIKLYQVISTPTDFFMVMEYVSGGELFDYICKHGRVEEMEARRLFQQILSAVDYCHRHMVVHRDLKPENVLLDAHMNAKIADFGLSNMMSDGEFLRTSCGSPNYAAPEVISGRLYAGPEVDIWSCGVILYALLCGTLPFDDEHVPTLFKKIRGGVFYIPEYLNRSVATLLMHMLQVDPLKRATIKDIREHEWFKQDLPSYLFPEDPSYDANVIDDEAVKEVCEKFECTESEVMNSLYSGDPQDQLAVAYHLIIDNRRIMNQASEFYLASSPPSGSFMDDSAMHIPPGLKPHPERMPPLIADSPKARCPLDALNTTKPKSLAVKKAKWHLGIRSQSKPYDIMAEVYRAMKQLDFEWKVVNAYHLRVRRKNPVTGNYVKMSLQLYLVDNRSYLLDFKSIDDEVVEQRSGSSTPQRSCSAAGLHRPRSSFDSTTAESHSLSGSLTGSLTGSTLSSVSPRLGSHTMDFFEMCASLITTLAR
Chain of AMPK (A2/B2/G2) (O43741 whole entry partner): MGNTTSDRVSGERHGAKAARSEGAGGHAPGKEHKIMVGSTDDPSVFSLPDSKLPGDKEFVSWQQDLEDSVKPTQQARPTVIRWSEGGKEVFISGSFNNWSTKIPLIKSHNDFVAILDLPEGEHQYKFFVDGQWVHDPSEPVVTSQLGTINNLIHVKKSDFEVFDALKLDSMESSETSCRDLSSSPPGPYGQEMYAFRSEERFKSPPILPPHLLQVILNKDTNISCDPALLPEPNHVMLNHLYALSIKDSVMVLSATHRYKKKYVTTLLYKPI
Chain of AMPK (A2/B2/G2) (Q9UGJ0 whole entry partner): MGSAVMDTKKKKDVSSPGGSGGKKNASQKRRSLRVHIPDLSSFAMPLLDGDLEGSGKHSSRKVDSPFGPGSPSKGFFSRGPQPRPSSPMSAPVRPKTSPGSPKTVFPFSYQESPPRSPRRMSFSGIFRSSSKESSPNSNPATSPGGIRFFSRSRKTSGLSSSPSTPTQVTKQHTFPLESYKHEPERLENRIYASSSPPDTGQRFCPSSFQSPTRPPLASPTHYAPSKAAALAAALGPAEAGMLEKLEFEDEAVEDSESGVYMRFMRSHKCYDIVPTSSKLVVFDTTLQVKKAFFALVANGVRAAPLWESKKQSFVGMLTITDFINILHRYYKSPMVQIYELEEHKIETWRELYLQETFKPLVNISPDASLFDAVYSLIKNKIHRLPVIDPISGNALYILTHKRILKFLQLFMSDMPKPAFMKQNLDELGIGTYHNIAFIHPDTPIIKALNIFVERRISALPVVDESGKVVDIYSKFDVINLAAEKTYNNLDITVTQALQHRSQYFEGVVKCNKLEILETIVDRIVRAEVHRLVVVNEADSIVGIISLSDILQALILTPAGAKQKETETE

Q: For `O=C(c1ccc(/C=C/c2n[nH]c3ccccc23)cc1)N1CCNCC1` [KW-2449], which inhibition at 10 µM [1] is on record?
A: 100%

Q: What about the inhibition at 10 µM [2] of the same molecule?
A: 90%

Q: What about the inhibition at 10 µM [3] of the same molecule?
A: -2%

Q: And the inhibition at 10 µM [4]?
A: 74%

Q: What about the inhibition at 10 µM [5] of the same molecule?
A: 41%

Q: And the inhibition at 10 µM [6]?
A: -3%

Q: What about the “cell senescence (beta-galactosidase)” value [7] of the same molecule?
A: dose-dependent induction of cell senescence

Q: And the colony formation [8]?
A: complete inhibition of colony formation in all cell lines except the MB cell line DAOY

Q: What about the inhibition at 10 µM [9] of the same molecule?
A: 72%

Q: And the inhibition at 10 µM [10]?
A: 61%

Q: And the inhibition at 10 µM [11]?
A: 88%

Q: What about the inhibition at 10 µM [12] of the same molecule?
A: 77%

Q: And the inhibition at 10 µM [13]?
A: 82%

Q: What about the inhibition at 10 µM [14] of the same molecule?
A: 98%

Q: What about the inhibition at 10 µM [15] of the same molecule?
A: 88%

Q: And the inhibition at 10 µM [16]?
A: 56%

Q: And the inhibition at 10 µM [17]?
A: 91%

Q: And the inhibition at 10 µM [18]?
A: 94%

Q: And the inhibition at 10 µM [19]?
A: 71%

Q: What about the inhibition at 10 µM [20] of the same molecule?
A: 30%

Q: What about the inhibition at 10 µM [21] of the same molecule?
A: 4%

Q: What about the inhibition at 10 µM [22] of the same molecule?
A: 96%

Q: And the inhibition at 10 µM [23]?
A: 95%

Q: And the “polyploidy (cell cycle analysis)” value [24]?
A: induction of polyploidy with 2µM KW-2449 in all cell lines except DAOY

Q: What about the inhibition at 10 µM [25] of the same molecule?
A: 78%
